Legend:
Assay type in all cases: physicochemical
[1] = Evaluation of hue and vividness of a recorded image on glossy paper (colorimetry, GRETAG SPM50); settings: for Vividness C*: C*=((a*)^2+(b*)^2)^1/2, glossy paper PR-101; for Vividness C* (3-level evaluation): glossy paper PR-101; for Brilliance L* / Hue a* / Hue b*: inkjet print of Table 3 ink (3.0 parts compound) on glossy paper Professional Photopaper PR-101
Experimental: (§1) A liquid of a composition shown in the following Table 3 is prepared using a compound (Compound No. 1) obtained in (2) of the above Example 1, followed by filtration with a 0.45 μm membrane filter to obtain each water-based ink composition for inkjet recording. Ion exchange water was used as water. In addition, water and ammonia water were added thereto to adjust the pH of the ink composition to 7 to 10 and a total amount of the ink composition to 100 parts. The test using the compound obtained in (2) of Example 1 is Example 7. Similarly the tests using the compounds obtained in Examples 2 to 6 are Examples 8 to 12 respectively.
(§2) Using an inkjet printer (Pixus 860i from Canon Inc.), inkjet recording was conducted on glossy paper having an ink-receiving layer containing a porous white inorganic substance (Professional Photopaper PR-101 from Canon Inc.). In inkjet recording, an image pattern was made so as to obtain gradations of several stages in printing density, and a print was made.
Hue and vividness in a recorded image : recorded paper was measured using a colorimetric system (GRETAG SPM50 from GRETAG Co., Ltd.), values of L*, a* and b* were calculated, and for vividness, C*=((a*)^2+(b*)^2)^1/2 was calculated from color level (a* and b*) where color level a* of each recording paper is similar. And vividness was evaluated on the following 3 levels judging from the measured results and the results are shown jointly in Table 4. • 90≦C* . . . ∘ • 80≦C*<90 . . . Δ

[2] = Xenon light fastness test of a recorded image; settings: xenon weatherometer Ci4000, 50 hours, 0.36 W/m^2, 2 mm glass plate and air layer, printed glossy paper and plain paper
Experimental: as §1, §2
Using a xenon weatherometer Ci4000 (from ATLAS Co., Ltd.), pieces of testing paper of printed glossy paper and plain paper from Canon, Inc., on which a glass plate having a thickness of 2 mm and an air layer were set up, were irradiated for 50 hours at illuminance of 0.36 W/m^2, and color difference (ΔE) before and after the test was measured and evaluated on 3 levels. • ΔE≦10 . . . ∘ • 10<ΔE≦20 . . . Δ • 20<ΔE . . . x The results are shown in Table 5. (E) Ozone Gas Fastness Test of a Recorded Image

[3] = Ozone gas fastness test of a recorded image; settings: ozone 40 ppm, 60% RH, 24° C., 3 hours, glossy paper
Experimental: A liquid of a composition shown in the following Table 3 is prepared using a compound (Compound No. 1) obtained in (2) of the above Example 1, followed by filtration with a 0.45 μm membrane filter to obtain each water-based ink composition for inkjet recording. Ion exchange water was used as water. In addition, water and ammonia water were added thereto to adjust the pH of the ink composition to 7 to 10 and a total amount of the ink composition to 100 parts. The test using the compound obtained in (2) of Example 1 is Example 7. Similarly the tests using the compounds obtained in Examples 2 to 6 are Examples 8 to 12 respectively. Using an inkjet printer (Pixus 860i from Canon Inc.), inkjet recording was conducted on glossy paper having an ink-receiving layer containing a porous white inorganic substance (Professional Photopaper PR-101 from Canon Inc.). In inkjet recording, an image pattern was made so as to obtain gradations of several stages in printing density, and a print was made. Using an ozone weatherometer (from Suga Testing Machine Co., Ltd.), a piece of testing paper printed on glossy paper from Canon, Inc. was left for 3 hours under conditions of ozone concentration of 40 ppm, humidity of 60% RH and temperature of 24° C., and color difference (ΔE) before and after the test was measured and evaluated on 3 levels. • ΔE≦20 . . . ∘ • 20<ΔE≦40 . . . Δ • 40<ΔE . . . x

Structure (SMILES) | Vividness C* [1] | Vividness C* (3-level evaluation) [1] | Brilliance L* [1] | Hue a* [1] | Hue b* [1] | Light fastness (color difference ΔE before and after the test, 3 levels) [2] | Ozone fastness (color difference ΔE before and after the test, 3 levels) [3]
Cc1c(C#N)c(NCCS(=O)(=O)O)nc(NCCS(=O)(=O)O)c1N=Nc1nc2ccccc2s1 [Compound No. 1] | 109.7 | ∘ (90≦C*) | 66.8 | 53.7 | 96.1 | ∘ (ΔE≦10) | ∘ (ΔE≦20)
Cc1c(C#N)c(NCCS(=O)(=O)O)nc(NCCS(=O)(=O)O)c1N=Nc1nc2ccc(S(=O)(=O)O)cc2s1 [Compound No. 2] | 101.9 | ∘ (90≦C*) | 68.3 | 53.5 | 86.8 | ∘ (ΔE≦10) | ∘ (ΔE≦20)
Cc1c(C#N)c(NCCS(=O)(=O)O)nc(NCCS(=O)(=O)O)c1N=Nc1nc2ccc(S(C)(=O)=O)cc2s1 [Compound No. 3] | – | – | – | – | – | ∘ (ΔE≦10) | ∘ (ΔE≦20)
COc1ccc2nc(N=Nc3c(NCCS(=O)(=O)O)nc(NCCS(=O)(=O)O)c(C#N)c3C)sc2c1 [Compound No. 4] | – | – | – | – | – | ∘ (ΔE≦10) | ∘ (ΔE≦20)
Cc1c(C#N)c(NCCS(=O)(=O)O)nc(NCCS(=O)(=O)O)c1N=Nc1nc2ccc(C(=O)O)cc2s1 [Compound No. 5] | – | – | – | – | – | ∘ (ΔE≦10) | ∘ (ΔE≦20)
Cc1c(C#N)c(NCCS(=O)(=O)O)nc(NCCS(=O)(=O)O)c1/N=N/c1snc2ccc(S(=O)(=O)O)cc12 [Compound No. 8] | – | – | – | – | – | ∘ (ΔE≦10) | ∘ (ΔE≦20)

— patent US20080011191A1, “Novel Azo Compound or Salt, Ink Composition Comprising Such Azo Compound, and Colored Article” (priority 2004, published 2008)
